Data taken from patent US20180015054A1, “Method of Maintaining the Anti-Depressant Effect of Ketamine With Lithium” (Icahn School of Medicine at Mount Sinai, priority 2014, published 2018).

How the values were obtained:
PTSD patients = conditions: three clusters: re-experiencing, avoidance and numbing, hyperarousal; cited from earlier work
depressive symptoms = conditions: cited from earlier work
[1] = tested on: patients with treatment-resistant depression (TRD); conditions: cited from earlier work
[2] = tested on: patients with treatment-resistant major depression (TRD); test: Planned randomized placebo-controlled double-blind trial of lithium + ketamine in TRD; format: in vivo, human
Text: A single-site early phase study will enroll patients with treatment-resistant major depression (TRD) in a randomized, placebo (PLC)-controlled, double blind clinical trial of lithium (Li)+ketamine (KET). The study will efficiently test the efficacy of Li compared to PLC in continuing the antidepressant response to KET. The study occurs in several phases. During a Screening phase participants undergo informed consent followed by a thorough medical and psychiatric evaluation. Eligible participants who meet all study inclusion/exclusion criteria receive a single Test KET(ketamine) Infusion to determine antidepressant response status. Non-responders [defined as <50% improvement in depression severity as measured by the Montgomery-Asberg Depression Rating Scale (MADRS) 24 hours following the infusion] are exited from the study and provided with standard of care. KET responders (2:50% improvement in MADRS) proceed to the Li/PLC treatment phase in which participants receive up to 1200 mg/day of Li or matching PLC under double blind conditions. Participants proceed to a 4-week Continuation Phase while remaining on their treatment assignment (Li/PLC) during which time depressive symptoms are monitored twice weekly. The primary outcome is depression severity as measured by the MADRS in the Li compared to PLC group at the 2-week point during the Continuation Phase. […]

PTSD symptom severity = conditions: assessed 24 hours after infusion; cited from earlier work
[3] = tested on: patients with treatment-resistant major depression; conditions: cited from earlier work
[4] = tested on: patients with BPD, TRD, MDD and PTSD; conditions: cited from earlier work
[5] = tested on: patients with treatment-resistant major depression; conditions: cited from earlier work; remark: listed apart in the source

Question: With Fc1ccc([C@@H]2CCNC[C@H]2COc2ccc3c(c2)OCO3)cc1 [paroxetine] as the compound, how does the “efficacy in PTSD” value (PTSD patients) read?
Answer: modest effect sizes and limited efficacy

Question: Which “efficacy in PTSD” value (PTSD patients) does the source give for CN[C@H]1CC[C@@H](c2ccc(Cl)c(Cl)c2)c2ccccc21 [sertraline] here?
Answer: modest effect sizes and limited efficacy

Question: With Nc1nc2ccc(OC(F)(F)F)cc2s1 [riluzole] as the compound, how does the “relapse prevention following ketamine compared to placebo” value (depressive symptoms; 4-week study) read?
Answer: no benefit of riluzole beyond placebo

Question: And the “relapse prevention following ketamine compared to placebo” value ([1]; TRD)?
Answer: not superior to placebo

Question: With O=C([O-])[O-].[Li+].[Li+] [lithium, lithium carbonate] as the compound, how does the “anticipated maintenance of the ketamine anti-depressant effect” value ([2]; ketamine responders receiving lithium, after last dose of ketamine) read?
Answer: at least two or three months

Question: What about the “expected duration of therapeutic effect of lithium following a response to ketamine” value ([2]; lithium carbonate 300-1800 mg daily) of the same compound?
Answer: at least 3 months

Question: Which “cumulative probability of relapse” value (depressive symptoms; 4-week assessment period after ketamine) does the source give for CNC1(c2ccccc2Cl)CCCCC1=O (centres unmarked) [ketamine] here?
Answer: 73%

Question: And the “reduction in PTSD symptom severity compared with midazolam” value (PTSD symptom severity)?
Answer: significant and rapid reduction

Question: And the “cumulative risk of relapse” value ([3]; 3-month observation period, free of concomitant medication)?
Answer: 70%

Question: And the “time to rapid improvement in depressive symptoms” value ([3]; after first ketamine infusion)?
Answer: ≤ 24 h

Question: What about the “median time to relapse” value ([3]; following sixth and final ketamine infusion) of the same compound?
Answer: 18 days

Question: What about the overall response rate ([3]; repeated infusions over 2 weeks) of the same compound?
Answer: 70.8%

Question: And the “onset of antidepressant effects” value ([4]; as early as, following single intravenous administration)?
Answer: 40 min

Question: What about the “duration of antidepressant efficacy” value ([4]; following a single administration) of the same compound?
Answer: a few days to approximately a week or two

Question: What about the “improvement in MADRS score compared to midazolam group” value ([5]; 24 hours after single IV infusion 0.5 mg/kg, P<0.001) of the same compound?
Answer: significantly greater improvement

Question: And the “duration of efficacy following a ketamine infusion” value ([5]; no longer separated from placebo at 7-day time point)?
Answer: 1 week

Question: And the “duration of dissociative or psychotomimetic effects” value ([5]; no patient beyond this time)?
Answer: ≤ 2 h

Question: What about the safety and tolerability ([5]; single IV infusion 0.5 mg/kg) of the same compound?
Answer: very safe and well tolerated

Question: And the “cumulative risk of relapse” value ([1]; 4-week observation period after ketamine)?
Answer: 62%

Question: And the “response rate (reduction of 50% or more on MADRS)” value ([1]; 26 TRD patients, single open-label IV infusion 0.5 mg/kg)?
Answer: 65%
